Experimental data from ChEMBL document CHEMBL1909046, “DrugMatrix in vitro pharmacology data”.

Experiments:
[1] = DRUGMATRIX: Platelet-Derived Growth Factor (PDGF) radioligand binding (ligand: [125I] PDGF); format: cell-based; conditions: nih3t3; Not Active = under 50% inhibition at 10 µM
[2] = target: 5-hydroxytryptamine receptor 4 (Cavia porcellus, UniProt O70528); format: cell membranes, Dunkin-Hartley, Striatum, Membrane; further: in other assays of this panel Not Active means under 50% inhibition at 10 µM
5-hydroxytryptamine receptor 4, sequence (O70528 whole entry): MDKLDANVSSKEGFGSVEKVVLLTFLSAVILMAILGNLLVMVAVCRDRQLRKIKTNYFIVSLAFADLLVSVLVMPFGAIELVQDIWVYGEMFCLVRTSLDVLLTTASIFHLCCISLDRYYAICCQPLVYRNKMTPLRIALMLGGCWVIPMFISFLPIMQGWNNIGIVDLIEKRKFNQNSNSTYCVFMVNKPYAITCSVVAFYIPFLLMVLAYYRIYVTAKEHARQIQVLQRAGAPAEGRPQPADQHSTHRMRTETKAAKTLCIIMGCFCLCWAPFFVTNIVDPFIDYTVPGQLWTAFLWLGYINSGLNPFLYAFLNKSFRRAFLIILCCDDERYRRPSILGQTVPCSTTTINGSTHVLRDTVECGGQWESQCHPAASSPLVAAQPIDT

[3] = DRUGMATRIX: Glutamate, NMDA, Agonism radioligand binding (ligand: [3H] CGP-39653); format: cell membranes, Rattus norvegicus, Wistar, Cerebral cortex, Membrane; conditions: Not Active = under 50% inhibition at 10 µM
[4] = DRUGMATRIX: Sigma2 radioligand binding (ligand: [3H] Ifenprodil); format: cell membranes, Rattus norvegicus, Wistar, Brain, Membrane; conditions: Not Active = under 50% inhibition at 10 µM
[5] = target: Glycine receptor (Rattus norvegicus, UniProt P22771+P24524+P07727+P20781); format: cell membranes, Wistar, Spinal cord, Membrane; further: in other assays of this panel Not Active means under 50% inhibition at 10 µM
[6] = target: Estrogen receptor beta (Homo sapiens, UniProt Q92731); conditions: sf9; further: in other assays of this panel Not Active means under 50% inhibition at 10 µM
Estrogen receptor beta, sequence (Q92731 whole entry): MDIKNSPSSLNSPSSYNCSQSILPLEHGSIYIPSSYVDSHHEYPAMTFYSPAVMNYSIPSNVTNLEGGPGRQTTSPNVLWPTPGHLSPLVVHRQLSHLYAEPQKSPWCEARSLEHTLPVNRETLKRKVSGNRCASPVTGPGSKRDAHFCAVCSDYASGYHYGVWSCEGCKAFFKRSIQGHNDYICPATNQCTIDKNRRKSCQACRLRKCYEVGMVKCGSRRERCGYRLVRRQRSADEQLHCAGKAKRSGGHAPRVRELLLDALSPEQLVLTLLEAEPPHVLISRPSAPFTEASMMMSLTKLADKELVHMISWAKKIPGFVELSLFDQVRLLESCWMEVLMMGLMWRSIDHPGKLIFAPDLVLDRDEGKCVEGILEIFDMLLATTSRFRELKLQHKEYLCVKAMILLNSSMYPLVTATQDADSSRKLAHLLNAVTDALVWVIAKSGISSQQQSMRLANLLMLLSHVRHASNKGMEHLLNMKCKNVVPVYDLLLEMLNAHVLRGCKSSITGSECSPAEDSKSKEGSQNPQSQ

[7] = DRUGMATRIX: GABAA, Muscimol, Central radioligand binding (ligand: [3H] Muscimol); format: cell membranes, Rattus norvegicus, Wistar, Brain, Membrane; conditions: Not Active = under 50% inhibition at 10 µM
[8] = target: Melanocortin receptor 3 (Homo sapiens, UniProt P41968); format: cell membranes, Membrane; conditions: hek293; further: in other assays of this panel Not Active means under 50% inhibition at 10 µM
Melanocortin receptor 3, sequence (P41968 whole entry): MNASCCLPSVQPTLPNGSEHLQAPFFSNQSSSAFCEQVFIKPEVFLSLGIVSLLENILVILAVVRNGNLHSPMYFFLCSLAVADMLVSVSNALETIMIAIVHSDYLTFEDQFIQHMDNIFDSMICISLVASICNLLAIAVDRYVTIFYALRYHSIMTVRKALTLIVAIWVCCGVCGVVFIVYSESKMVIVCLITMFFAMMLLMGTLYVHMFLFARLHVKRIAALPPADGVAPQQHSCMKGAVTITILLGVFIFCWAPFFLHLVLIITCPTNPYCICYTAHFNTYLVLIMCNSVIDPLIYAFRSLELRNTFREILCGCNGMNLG

CN(Cc1cnc2nc(N)nc(N)c2n1)c1ccc(C(=O)N[C@@H](CCC(=O)O)C(=O)O)cc1 [METHOTREXATE]
Not Active: IC50 [1] | Ki [1] | IC50 [2] | IC50 [3] | Ki [3] | IC50 [4] | Ki [4] | IC50 [5] | IC50 [6] | IC50 [7] | Ki [7] | IC50 [8]

O=P1(N(CCCl)CCCl)NCCCO1 (stereo unspecified) [CYCLOPHOSPHAMIDE ANHYDROUS]
Not Active: IC50 [1] | Ki [1] | IC50 [2] | IC50 [3] | Ki [3] | IC50 [4] | Ki [4] | IC50 [5] | IC50 [6] | IC50 [7] | Ki [7] | IC50 [8]

C[C@]12CCC(=O)C=C1CC[C@@H]1[C@@H]2[C@@H](O)C[C@@]2(C)[C@H]1CC[C@]2(O)C(=O)CO [HYDROCORTISONE]
Not Active: IC50 [1] | Ki [1] | IC50 [2] | IC50 [3] | Ki [3] | IC50 [4] | Ki [4] | IC50 [5] | IC50 [6] | IC50 [7] | Ki [7] | IC50 [8]

Cc1cccc(Nc2ccccc2C(=O)O)c1C [MEFENAMIC ACID]
Not Active: IC50 [1] | Ki [1] | IC50 [2] | IC50 [3] | Ki [3] | IC50 [4] | Ki [4] | IC50 [5] | IC50 [6] | IC50 [7] | Ki [7] | IC50 [8]

CCn1cc(C(=O)O)c(=O)c2cc(F)c(N3CCNCC3)nc21 [ENOXACIN]
Not Active: IC50 [1] | Ki [1] | IC50 [2] | IC50 [3] | Ki [3] | IC50 [4] | Ki [4] | IC50 [5] | IC50 [6] | IC50 [7] | Ki [7] | IC50 [8]

Cc1c(N(C)CS(=O)(=O)[O-])c(=O)n(-c2ccccc2)n1C.[Na+] [DIPYRONE SODIUM]
Not Active: IC50 [1] | Ki [1] | IC50 [2] | IC50 [3] | Ki [3] | IC50 [4] | Ki [4] | IC50 [5] | IC50 [6] | IC50 [7] | Ki [7] | IC50 [8]

C#C[C@]1(O)CC[C@H]2[C@@H]3CCC4=Cc5oncc5C[C@]4(C)[C@H]3CC[C@@]21C [DANAZOL]
Not Active: IC50 [1] | Ki [1] | IC50 [2] | IC50 [3] | Ki [3] | IC50 [4] | Ki [4] | IC50 [5] | IC50 [6] | IC50 [7] | Ki [7] | IC50 [8]

CCOC(=O)n1ccn(C)c1=S [CARBIMAZOLE]
Not Active: IC50 [1] | Ki [1] | IC50 [2] | IC50 [3] | Ki [3] | IC50 [4] | Ki [4] | IC50 [5] | IC50 [6] | IC50 [7] | Ki [7] | IC50 [8]

COc1cc(CNC(=O)CCCC/C=C/C(C)C)ccc1O [CAPSAICIN]
Not Active: IC50 [1] | Ki [1] | IC50 [2] | IC50 [3] | Ki [3] | IC50 [4] | Ki [4] | IC50 [5] | IC50 [6] | IC50 [7] | Ki [7] | IC50 [8]

C[C@H](C(=O)O)c1cccc(C(=O)c2ccccc2)c1 [DEXKETOPROFEN]
Not Active: IC50 [1] | Ki [1] | IC50 [2] | IC50 [3] | Ki [3] | IC50 [4] | Ki [4] | IC50 [5] | IC50 [6] | IC50 [7] | Ki [7] | IC50 [8]

NC[C@@H]1O[C@H](O[C@H]2[C@@H](O)[C@H](O[C@@H]3[C@@H](O)[C@H](N)C[C@H](N)[C@H]3O[C@H]3O[C@H](CN)[C@@H](O)[C@H](O)[C@H]3N)O[C@@H]2CO)[C@H](N)[C@@H](O)[C@@H]1O [FRAMYCETIN]
Not Active: IC50 [1] | Ki [1] | IC50 [2] | IC50 [3] | Ki [3] | IC50 [4] | Ki [4] | IC50 [5] | IC50 [6] | IC50 [7] | Ki [7] | IC50 [8]

C[C@]12C/C(=C/O)C(=O)C[C@@H]1CC[C@@H]1[C@@H]2CC[C@@]2(C)[C@H]1CC[C@]2(C)O [OXYMETHOLONE]
Not Active: IC50 [1] | Ki [1] | IC50 [2] | IC50 [3] | Ki [3] | IC50 [4] | Ki [4] | IC50 [5] | IC50 [6] | IC50 [7] | Ki [7] | IC50 [8]

C[C@@H]1CC[C@H]2[C@@H](C)C(=O)O[C@@H]3O[C@@]4(C)CC[C@@H]1[C@]32OO4 [ARTEMISININ]
Not Active: IC50 [1] | Ki [1] | IC50 [2] | IC50 [3] | Ki [3] | IC50 [4] | Ki [4] | IC50 [5] | IC50 [6] | IC50 [7] | Ki [7] | IC50 [8]

CCOC(=O)[C@H](CCc1ccccc1)N[C@@H](C)C(=O)N1Cc2ccccc2C[C@H]1C(=O)O
Not Active: IC50 [1] | Ki [1] | IC50 [2] | IC50 [3] | Ki [3] | IC50 [4] | Ki [4] | IC50 [5] | IC50 [6] | IC50 [7] | Ki [7] | IC50 [8]

C=C1/C(=C\C=C2/CCC[C@]3(C)[C@@H]([C@H](C)CCCC(C)C)CC[C@@H]23)C[C@@H](O)C[C@@H]1O [ALFACALCIDOL]
Not Active: IC50 [1] | Ki [1] | IC50 [2] | IC50 [3] | Ki [3] | IC50 [4] | Ki [4] | IC50 [5] | IC50 [6] | IC50 [7] | Ki [7] | IC50 [8]

CCCCC1C(=O)N(c2ccccc2)N(c2ccccc2)C1=O [PHENYLBUTAZONE]
Not Active: IC50 [1] | Ki [1] | IC50 [2] | IC50 [3] | Ki [3] | IC50 [4] | Ki [4] | IC50 [5] | IC50 [6] | IC50 [7] | Ki [7] | IC50 [8]

Cc1cn[nH]c1 [FOMEPIZOLE]
Not Active: IC50 [1] | Ki [1] | IC50 [2] | IC50 [3] | Ki [3] | IC50 [4] | Ki [4] | IC50 [5] | IC50 [6] | IC50 [7] | Ki [7] | IC50 [8]

COc1ccccc1OCC(O)CO (stereo unspecified) [GUAIFENESIN]
Not Active: IC50 [1] | Ki [1] | IC50 [2] | IC50 [3] | Ki [3] | IC50 [4] | Ki [4] | IC50 [5] | IC50 [6] | IC50 [7] | Ki [7] | IC50 [8]
